For one data set, the system named is nasal polyps. The conditions noted are these: cited from earlier work.
A short description of another data set: in vivo. Details: species or system Sprague-Dawley male rats. The conditions noted are these: rat. As for the experimental part:
Two Sprague-Dawley male rats each weighing 250 to 300 grams, anesthetized using sodium pentobarbital (50 mg/Kg of body weight), were administered nasally by micropipet a dosage level of 15 mg/Kg of body weight of the following composition:
216 mg metoclopramide.HCL (MCP.HCL)
895.2 mg polyethylene glycol (PEG 400)
The femoral artery was cannulated with heparinized polyethylene tubing (Clay Adams, PE-50) and blood samples were removed at the times indicated in Table 1.
The samples were analyzed by high pressure liquid chromatography (HPLC) as follows:
Column: Silica Column (4.6×250 mm)
Mobile Phase: CH2 Cl2 : MeOH:NH4 OH=90:10:0.5
Plasma (0.3 ml) was placed in a test tube and 0.1 ml of 1N NaOH was added. Four ml of methylene chloride was then added and the mixture shaken for 10 minutes on a reciprocal shaker, centrifuged for 3 minutes in an IEC clinical centrifuge and the upper layer removed by aspiration. A 3.0 ml aliquot of the methylene chloride layer was transferred to a second tube and evaporated to dryness with a streak of nitrogen gas. The resulting residue was then dissolved in 0.1 to 0.5 ml of mobile phase and submitted to HPLC analysis. […]

A short description of data set [1]: 4-way crossover study of metoclopramide hydrochloride (nasal, oral, intramuscular) in volunteer human subjects. The class given is in vivo. The conditions noted are these: for Tmax: human, in vivo, Time to Peak. As for the experimental part:
A 4-way crossover study was conducted in eight volunteer human subjects to compare the effects of the nasal administration of 5 and 10 mg of metoclopramide hydrochloride in a gel formulation, 10 mg of the same agent in an oral formulation and 5 mg of the product intramuscularly. The nasal formulation had the following composition: […]
______________________________________
BENZYL ALCOHOL N.F. 1.500 ml
SODIUM CHLORIDE U.S.P. 0.800 grams
ACETIC ACID, N.F. 0.320 grams
SODIUM ACETATE U.S.P. 0.077 grams
SORBITOL SOLUTION U.S.P.
METOCLOPRAMIDE HCL 5.000 grams
WATER PURIFIED U.S.P. q.s.
The oral and intramuscular compositions were commercial formulations available from A.G. Robbins Pharmaceutical Company, Richmond, Va., under the name Reglan.
The study was extended to dosage levels of 20 mg and 40 mg by the intranasal route using the same compositions.

A further data set deals with nausea and vomiting. In words: Intranasal metoclopramide for control of nausea and vomiting in cancer patients. It is filed as in vivo, human. The conditions noted are these: intranasal 40 mg every four hours. On the procedure:
The patient was a person with Stage IV ovarian cancer.
Because of repeated nausea and vomiting due to bowel obstruction and other factors, intranasal metoclopramide at 40 mg per dose every four hours was employed for control of symptoms.

The next data set has as its system dogs. The conditions noted are these: cited from earlier work.
In another data set the test system is cats. The conditions noted are these: same or larger amounts into the sinus; cited from earlier work.

The Tmax is the time from dosing to the highest level.

Structures can show the parent of a compound that is named as a salt. Where two headings read alike, the source gives them in different places.

On to `CC1(C)O[C@@H]2C[C@H]3[C@@H]4C[C@H](F)C5=CC(=O)C=C[C@]5(C)[C@H]4[C@@H](O)C[C@]3(C)[C@]2(C(=O)CO)O1` [flunisolide], for which, in the data set with nasal polyps, the topical antiinflammatory activity result is “excellent topical antiinflammatory”. Besides, in the data set with nasal polyps (nasal topical), the absorption result is on record as “not rapidly absorbed” and the systemic activity entry is “minimal systemic activity”.

With `CCN(CC)CCNC(=O)c1cc(Cl)c(N)cc1OC` [metoclopramide hydrochloride], in the data set “in vivo”, the “maintenance of high levels” value is given as “maintained for a longer period of time” and the “time to achieve maximum levels” value is “extended”. Besides, the Tmax in the data set “in vivo” (15 mg/kg) was 0.25 h. In “in vivo” (15 mg/kg, 0.25 h), this compound had a Concentration of 1.61 ± 0.23 ug/ml plasma. In the data set “in vivo” (15 mg/kg, 0.5 h), this compound came in with a Concentration of 1.55 ± 0.18 ug/ml plasma. The compound also registered a Concentration in “in vivo” (15 mg/kg, 0.75 h) of 1.30 ± 0.18 ug/ml plasma. Further, the Concentration in the data set “in vivo” (15 mg/kg, 1 h) amounted to 1.26 ± 0.3 ug/ml plasma. In addition, the Concentration in “in vivo” (15 mg/kg, 1.25 h) is given as 1.62 ± 0.17 ug/ml plasma. The Concentration in “in vivo” (15 mg/kg, 1.5 h) stood at 1.63 ± 0.18 ug/ml plasma. Further, the Concentration in the data set “in vivo” (15 mg/kg, 2 h) is 1.55 ± 0.26 ug/ml plasma. Moreover, in “in vivo” (15 mg/kg, 4 h), the Concentration is 1.29 ± 0.28 ug/ml plasma. In “in vivo” (15 mg/kg, Concentration), the concentration at 0.25 h came out at 850 ± 120 ng/mL, the concentration at 0.5 h came out at 1370 ± 210 ng/mL, the concentration at 0.75 h worked out at 1510 ± 180 ng/mL and the concentration at 1 h came out at 1610 ± 50 ng/mL. In addition, in the data set “in vivo” (15 mg/kg, Concentration), the concentration at 1.25 h amounted to 1110 ± 340 ng/mL, the concentration at 1.5 h amounted to 1040 ± 350 ng/mL, the concentration at 2 h was 1100 ± 380 ng/mL and the concentration at 2.5 h came to 1550 ± 210 ng/mL. In the data set “in vivo” (15 mg/kg, Concentration), this compound yielded a concentration at 3 h of 1090 ± 360 ng/mL and a concentration at 4 h of 940 ng/mL. Moreover, the pharmacokinetic profiles result in data set [1] (10 mg nasal, 10 mg P.O. and 5 mg I.M. compared) was “statistically identical”. Further, the local toxicity entry in data set [1] (during or after the study, 5 and 10 mg nasal, 10 mg P.O., 5 mg I.M.) is listed as “No evidence of local toxicity”. Moreover, the “local or systemic toxicity” value in data set [1] (extended study, 20 mg and 40 mg intranasal) is on record as “no evidence of either local or systemic toxicity”. Further, the time of peak concentration (Tmax) in data set [1] was 1.34 h. Further, in data set [1] (im), the Tmax was 1.53 h. In data set [1] (po), the Tmax was 1.62 h.

As for `CCN(CC)CCNC(=O)c1cc(Cl)c(N)cc1OC` [metoclopramide], the benefit from treatment entry in the data set on nausea and vomiting (five more cancer patients refractory to other antinausea treatments) is reported as “All patients benefited from the treatment”. In addition, in the data set on nausea and vomiting (one patient, Stage IV ovarian cancer with bowel obstruction), the control of nausea result is “contained their nausea between occasional bouts of vomiting”.

As to `CN1CCCC1c1cccnc1` (centres unmarked) [nicotine], the pressor response result is “immediate and marked pressor response” in the data set on dogs (injection of 1 mg); “little or no effect” in the data set on dogs (same or larger amounts into the sinus); “little or no effect” in the data set with cats.

(Values after patent US4749700A, “Novel methods of administering antihistamines, antinausea and antiemetic pharmaceutical agents and novel dosage forms containing same” (priority 1987, dated 1988).)
